Key:
Assay in all cases: relative viability (nuclei count vs DMSO), 5 days (fraction); higher = more cells survive
HCC-827 = tested on: HCC-827
How it was run: (§1)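 Relative viability was taken as the ratio of nuclei in treated wells to nuclei in vehicle wells. Lung cancer cell lines in 1536-well plates received compounds by pin tool one day after seeding, either one drug alone or a fixed anchor-drug dose plus five library-drug doses (not always all listed) in √10 steps. Nuclei were counted on 4× images after 5 days of treatment, and values are medians of duplicate plates.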

HCC-366 = tested on: HCC-366
How it was run: as §1

A-427 = tested on: A-427
How it was run: as §1

SW 1573 = tested on: SW 1573
How it was run: as §1

NCI-H1734 = tested on: NCI-H1734
How it was run: as §1

SK-LU-1 = tested on: SK-LU-1
How it was run: as §1

LC-2-ad = tested on: LC-2-ad
How it was run: as §1

NCI-H2347 = tested on: NCI-H2347
How it was run: as §1

NCI-H1975 = tested on: NCI-H1975
How it was run: as §1

NCI-H1993 = tested on: NCI-H1993
How it was run: as §1

SK-MES-1 = tested on: SK-MES-1
How it was run: as §1

NCI-H1355 = tested on: NCI-H1355
How it was run: as §1

NCI-H1915 = tested on: NCI-H1915
How it was run: as §1

NCI-H2228 = tested on: NCI-H2228
How it was run: as §1

NCI-H1792 = tested on: NCI-H1792
How it was run: as §1

NCI-H2170 = tested on: NCI-H2170
How it was run: as §1

RERF-LC-KJ = tested on: RERF-LC-KJ
How it was run: as §1

LCLC-103H = tested on: LCLC-103H
How it was run: as §1

NCI-H23 = tested on: NCI-H23
How it was run: as §1

NCI-H650 = tested on: NCI-H650
How it was run: as §1

NCI-H1755 = tested on: NCI-H1755
How it was run: as §1

UMC-11 = tested on: UMC-11
How it was run: as §1

NCI-H2342 = tested on: NCI-H2342
How it was run: as §1

CCNC(=O)c1noc(-c2cc(C(C)C)c(O)cc2O)c1-c1ccc(CN2CCOCC2)cc1 [Luminespib] + CC(=O)c1c(C)c2cnc(Nc3ccc(N4CCNCC4)cn3)nc2n(C2CCCC2)c1=O [Palbociclib] (partner 0.5 µM)
relative viability (HCC-827; first compound 0.002 µM): 0.492
relative viability (HCC-827; first compound 0.006325 µM): 0.473
relative viability (HCC-827; first compound 0.02 µM): 0.326
relative viability (HCC-827; first compound 0.06325 µM): 0.178
relative viability (HCC-827; first compound 0.2 µM): 0.148
relative viability (HCC-366; first compound 0.002 µM): 0.363
relative viability (HCC-366; first compound 0.006325 µM): 0.358
relative viability (HCC-366; first compound 0.02 µM): 0.411
relative viability (HCC-366; first compound 0.06325 µM): 0.0279
relative viability (HCC-366; first compound 0.2 µM): 0.0276
relative viability (A-427; first compound 0.002 µM): 0.516
relative viability (A-427; first compound 0.006325 µM): 0.488
relative viability (A-427; first compound 0.02 µM): 0.503
relative viability (A-427; first compound 0.06325 µM): 0.467
relative viability (A-427; first compound 0.2 µM): 0.258
relative viability (SW 1573; first compound 0.002 µM): 0.426
relative viability (SW 1573; first compound 0.006325 µM): 0.344
relative viability (SW 1573; first compound 0.02 µM): 0.396
relative viability (SW 1573; first compound 0.06325 µM): 0.101
relative viability (SW 1573; first compound 0.2 µM): 0.0763
relative viability (NCI-H1734; first compound 0.002 µM): 0.359
relative viability (NCI-H1734; first compound 0.006325 µM): 0.389
relative viability (NCI-H1734; first compound 0.02 µM): 0.334
relative viability (NCI-H1734; first compound 0.06325 µM): 0.204
relative viability (NCI-H1734; first compound 0.2 µM): 0.144
relative viability (SK-LU-1; first compound 0.002 µM): 0.456
relative viability (SK-LU-1; first compound 0.006325 µM): 0.318
relative viability (SK-LU-1; first compound 0.02 µM): 0.294
relative viability (SK-LU-1; first compound 0.06325 µM): 0.186
relative viability (SK-LU-1; first compound 0.2 µM): 0.194
relative viability (LC-2-ad; first compound 0.002 µM): 0.473
relative viability (LC-2-ad; first compound 0.006325 µM): 0.486
relative viability (LC-2-ad; first compound 0.02 µM): 0.556
relative viability (LC-2-ad; first compound 0.06325 µM): 0.478
relative viability (LC-2-ad; first compound 0.2 µM): 0.331
relative viability (NCI-H2347; first compound 0.002 µM): 0.37
relative viability (NCI-H2347; first compound 0.006325 µM): 0.408
relative viability (NCI-H2347; first compound 0.02 µM): 0.38
relative viability (NCI-H2347; first compound 0.06325 µM): 0.384
relative viability (NCI-H2347; first compound 0.2 µM): 0.301
relative viability (NCI-H1975; first compound 0.002 µM): 0.614
relative viability (NCI-H1975; first compound 0.006325 µM): 0.469
relative viability (NCI-H1975; first compound 0.02 µM): 0.363
relative viability (NCI-H1975; first compound 0.06325 µM): 0.103
relative viability (NCI-H1975; first compound 0.2 µM): 0.122
relative viability (NCI-H1993; first compound 0.002 µM): 0.714
relative viability (NCI-H1993; first compound 0.006325 µM): 0.611
relative viability (NCI-H1993; first compound 0.02 µM): 0.473
relative viability (NCI-H1993; first compound 0.06325 µM): 0.716
relative viability (NCI-H1993; first compound 0.2 µM): 0.413
relative viability (SK-MES-1; first compound 0.002 µM): 0.296
relative viability (SK-MES-1; first compound 0.006325 µM): 0.335
relative viability (SK-MES-1; first compound 0.02 µM): 0.368
relative viability (SK-MES-1; first compound 0.06325 µM): 0.151
relative viability (SK-MES-1; first compound 0.2 µM): 0.172
relative viability (NCI-H1355; first compound 0.002 µM): 0.415
relative viability (NCI-H1355; first compound 0.006325 µM): 0.383
relative viability (NCI-H1355; first compound 0.02 µM): 0.257
relative viability (NCI-H1355; first compound 0.06325 µM): 0.367
relative viability (NCI-H1355; first compound 0.2 µM): 0.222
relative viability (NCI-H1915; first compound 0.002 µM): 0.562
relative viability (NCI-H1915; first compound 0.006325 µM): 0.507
relative viability (NCI-H1915; first compound 0.02 µM): 0.478
relative viability (NCI-H1915; first compound 0.06325 µM): 0.318
relative viability (NCI-H1915; first compound 0.2 µM): 0.24
relative viability (NCI-H2228; first compound 0.002 µM): 0.752
relative viability (NCI-H2228; first compound 0.006325 µM): 0.616
relative viability (NCI-H2228; first compound 0.02 µM): 0.121
relative viability (NCI-H2228; first compound 0.06325 µM): 0.119
relative viability (NCI-H2228; first compound 0.2 µM): 0.104
relative viability (NCI-H1792; first compound 0.002 µM): 0.691
relative viability (NCI-H1792; first compound 0.006325 µM): 0.655
relative viability (NCI-H1792; first compound 0.02 µM): 0.622
relative viability (NCI-H1792; first compound 0.06325 µM): 0.316
relative viability (NCI-H1792; first compound 0.2 µM): 0.278
relative viability (NCI-H2170; first compound 0.002 µM): 0.41
relative viability (NCI-H2170; first compound 0.006325 µM): 0.383
relative viability (NCI-H2170; first compound 0.06325 µM): 0.376
relative viability (NCI-H2170; first compound 0.2 µM): 0.315
relative viability (RERF-LC-KJ; first compound 0.002 µM): 1.04
relative viability (RERF-LC-KJ; first compound 0.006325 µM): 1.01
relative viability (RERF-LC-KJ; first compound 0.02 µM): 1.02
relative viability (RERF-LC-KJ; first compound 0.06325 µM): 0.269
relative viability (RERF-LC-KJ; first compound 0.2 µM): 0.227
relative viability (LCLC-103H; first compound 0.002 µM): 0.481
relative viability (LCLC-103H; first compound 0.006325 µM): 0.454
relative viability (LCLC-103H; first compound 0.02 µM): 0.447
relative viability (LCLC-103H; first compound 0.06325 µM): 0.469
relative viability (LCLC-103H; first compound 0.2 µM): 0.468
relative viability (NCI-H23; first compound 0.002 µM): 0.567
relative viability (NCI-H23; first compound 0.006325 µM): 0.582
relative viability (NCI-H23; first compound 0.02 µM): 0.376
relative viability (NCI-H23; first compound 0.06325 µM): 0.154
relative viability (NCI-H23; first compound 0.2 µM): 0.14
relative viability (NCI-H650; first compound 0.002 µM): 0.39
relative viability (NCI-H650; first compound 0.006325 µM): 0.283
relative viability (NCI-H650; first compound 0.02 µM): 0.277
relative viability (NCI-H650; first compound 0.06325 µM): 0.181
relative viability (NCI-H650; first compound 0.2 µM): 0.0632
relative viability (NCI-H1755; first compound 0.002 µM): 0.51
relative viability (NCI-H1755; first compound 0.006325 µM): 0.474
relative viability (NCI-H1755; first compound 0.02 µM): 0.44
relative viability (NCI-H1755; first compound 0.06325 µM): 0.462
relative viability (NCI-H1755; first compound 0.2 µM): 0.373
relative viability (UMC-11; first compound 0.002 µM): 0.32
relative viability (UMC-11; first compound 0.006325 µM): 0.303
relative viability (UMC-11; first compound 0.02 µM): 0.296
relative viability (UMC-11; first compound 0.06325 µM): 0.273
relative viability (UMC-11; first compound 0.2 µM): 0.2
relative viability (NCI-H2342; first compound 0.002 µM): 0.527
relative viability (NCI-H2342; first compound 0.006325 µM): 0.527
relative viability (NCI-H2342; first compound 0.02 µM): 0.438
relative viability (NCI-H2342; first compound 0.06325 µM): 0.526
relative viability (NCI-H2342; first compound 0.2 µM): 0.409

— the supplement of paper PMC10307832
